From US5232922A, “Imidazole compounds, processes for their preparation, pharmaceuticals based on these compounds and some intermediates” (priority 1990, dated 1993) come the findings set out here.

One may read the LD50 as the dose expected to kill half of the subjects tested. A lower LD50 goes with a more toxic substance.

Each structure is given as a SMILES string.

Data set [1] has as its system skeletal muscle of the rat (chronic ischemic). Kind of data set: Effect on the contractility of the skeletal muscle after chronic ischemia (tiring index). Type of data set: in vivo, rat (male Wistar). The settings on record: 6 mg/kg p.o. over 7 days, n = 4-6; for TI of ischemic treated muscle: tiring index = maximum contractility / residual force after 5 min stimulation; for change in vivo at 6 mg/kg: Rattus norvegicus, po, 168 h, smaller value = more effective, read-out: Percentage change (TI of ischemic treated muscle vs TI of normal non-treated muscle). An excerpt:
1) Effect on the Contractility of the Skeletal Muscle After Chronic Ischemia
In recent years, a marked change has taken place in ideas about the pathophysiology of chronic peripheral arterial occlusive disease as scientific interest has to an increasing extent shifted from the macrocirculation to the microcirculation. Disturbances in the microcirculation therefore manifest themselves in an undersupply of substrates with tissue ischemia resulting therefrom which, in turn, leads to an impairment in the function of the extremity concerned. The logical consequence of this is that the target organ skeletal muscle comes more and more into the forefront. […] The clinical activity is in fact also consistently determined in humans with the aid of the painless walking distance on the moving walkway.
Male Wistar rats having a body weight of 380 to 410 g were used as experimental animals. Under hexobarbital anesthesia (®Evipan--sodium, 200 mg/kg BW (=body weight) i.p.), a unilateral ligature of the right femoral artery was applied to the animals in the groin. After sprinkling penicillin sulfonamide powder for antibiotic wound care, the small operation wound was closed and the animals were continuously observed until they were completely awake. One week later, the administration of substance began by oral administration using a stomach tube (6 mg/kg BW, carboxymethylcellulose-sodium suspension) and was continued for 7 days (single administration per day, about 7h30 to 8h30). The contractility was measured 24 h after the last administration of substance in order to exclude acute effects, to be precise by the following experimental protocol:
Superfusion with physiological saline solution (37° C.) was used to avoid drying out and cooling. The mean arterial blood pressure was recorded continuously via Statham (=blood pressure measuring device) by means of a cannulated caroted artery to control the physiological status of the animals during the experiment. All animals breathed spontaneously by means of an inserted tracheal tube.
After these preparations, the muscle was made to contract (Stimulator I, Hugo Sachs, Federal Republic of Germany) by direct electrical stimulation (2.5 mA, 2 Hz). The absolute contractility in grams at various times of stimulation was used as the measured parameter. […] If the maximum contractility at the start of stimulation is now divided by the residual force remaining after 5 minutes' tiring stimulation, a "tiring index TI" for the muscle concerned can be calculated; the ability to tire here is larger the larger TI is numerically.
4 to 6 individual experiments were carried out for each test preparation.

Data set [2] deals with laser-induced thrombosis in mesenterial arterioles. The data set can be described thus: Inhibition of laser-induced thrombosis in mesenterial arterioles of the rat. The settings on record: Rattus norvegicus, po, read-out: Percentage change vs control (inhibition of laser-induced thrombosis); for inhibition in vivo at 10 mg/kg: 10 mg/kg p.o.; for inhibition in vivo at 20 mg/kg: 20 mg/kg p.o. Type of data set: in vivo, rat (female Sprague-Dawley).

The nature of data set [3]: Acute toxicity (LD50 range). The conditions noted are these: mouse, in vivo, single administration, NMRI mice, 7 days. The method, then: The determination of the LD50 ranges was carried out in standard fashion by means of the mortality occurring in the course of 7 days in NMRI mice after single intravenous (i.v.) or intraperitoneal (i.p.) administration (NMRI=NIH Medical Research Institute).

The subject of data set [4] is photochemically-induced thrombosis in mesenterial arterioles. The data set can be described thus: Inhibition of photochemically-induced thrombosis in mesenterial arterioles. It is filed as in vivo, rat. How it is done:
In this model, rats were anesthetized as described above under 2). The investigations were carried out on mesenterial arterioles having a diameter of 11 to 50 lm. A thrombosis was induced in a modification in accordance with a method known from the literature (Herrmann, K. H. Microvasc. Res. 26, 238-249, 1983) and is based on the photochemical release of singlet oxygen, which leads locally to an endothelial lesion. The animals to be investigated received an intravenous injection of 0.3 ml of a 10% strength solution of fluorescein in isothiocyanate--Dextran 70 (FITC--Dextran 70 s, Sigma, Munich). The arterole was looked for under the microscope and centered in the observation field. The FITC--Dextran in the blood vessel was then excited using a special lamp and filter device (excitation 490 nm, emission 510 nm). For evaluation of thrombus formation, the time was taken which extended from the point of excitation to the formation of a first thrombus on the wall. 5 vessels in each animal were examined in this manner.

Data set [5] deals with capillary bed of the skeletal muscle of the rat. The data set can be described thus: Laser-Doppler flow measurement of erythrocyte flux in acutely ischemic skeletal muscle. Type of data set: in vivo, rat (male Wistar). The conditions noted are these: during occlusion. The method, then:
Using laser-Doppler flow measurements (LDF), the erythrocyte flux (the number of cells flowing past under the laser beam x their velocity) can be measured in a noninvasive and continuous manner in the capillary bed of the skeletal muscle of the rat (perimed PF2 laser-Doppler flowmeter, Perimed, Sweden). […] The apparatus was set as follows: 12 kHz, gain 10, time constant 1.5 sec, 37° C. The right femoral artery of male Wistar rats having a body weight of 380-430 g was exposed and the skin and the connective tissue was dissected away over a small muscle area (anterior tibia). The probe was placed about 1 mm above this area. […] At this point, the test substances were infused intravenously in aqueous solution (0.03 and 0.6 mg/kg/min). The maximum percentage increase in the erythrocyte flux after administration of substance during the occlusion (see also Okyayuz-Baklouti, I., European J. of Pharmacology, 166: 75-86, 1989) was used as the measuring parameter for the substance activity. […] 3-7 animals were employed per preparation and dose.

The test system of a further data set is acutely ischemic muscle. The data set can be described thus: Contractility in the acutely ischemic muscle. Type of data set: in vivo. The settings on record: i.v. How it is done:
The contractility in the acutely ischemic muscle was measured in a similar experimental procedure, as described under 1). The muscle, initially normally supplied with blood, was made to contract isometrically by direct electrical stimulation (1.2 Hz, 2.5 mA). The right femoral artery was then occluded for 5 min by means of a clamp. […] The vessel was then reopened and the starting contractility before the first occlusion was attained. During the second occlusion which then followed, the preparations to be tested were administered intravenously in aqueous solution via the jugular vein. 4-8 animals were employed per preparation and dose. The decrease in the contractility during occlusion with and without substance administration was compared and the percentage change was used to evaluate the substance activity. The substances according to the invention, for example the compound of Example 7, were also remarkable in this test for outstanding effects.

On to `Cn1cnc(S(=O)(=O)O)c1Cl` [Example 1, 5-Chloro-1-methyl-4-imidazolesulfonic acid], for which, in data set [1], the “TI of ischemic treated muscle” value came out at 2.26 and the change in vivo at 6 mg/kg is 1.3%. Moreover, the inhibition in vivo at 10 mg/kg in data set [2] was determined as 13%. This compound also showed an LD50 at 168 h in data set [3] (iv) of more than 200 mg/kg.

For `Cl.Cn1cnc(S(=O)(=O)NCCCCN2CCOCC2)c1` [Example 10, N-(4-morpholinobutyl)-1-methyl-4-imidazolesulfonamide hydrochloride], in data set [1], the “TI of ischemic treated muscle” value was determined as 2.19 and the change in vivo at 6 mg/kg is -3.6%. The inhibition in vivo at 10 mg/kg in data set [2] turned out to be 38%. In data set [3] (iv), the LD50 at 168 h was more than 100 mg/kg.

In the case of `Cl.Cn1cnc(S(=O)(=O)NCc2ccc(CN3CCOCC3)cc2)c1` [Example 14, N-[4-(morpholinomethyl)benzyl]-1-methyl-4-imidazolesulfonamide hydrochloride], in data set [1], the “TI of ischemic treated muscle” value amounted to 2.57 and the change in vivo at 6 mg/kg was 13.4%. Also, the inhibition in vivo at 20 mg/kg in data set [2] was 13%. In data set [3] (iv), this compound registered an LD50 at 168 h of more than 100 mg/kg.

Take `Cn1cnc(S(=O)(=O)N2CCN(c3ccc(O)cc3)CC2)c1` [Example 25]: in data set [1], the “TI of ischemic treated muscle” value is 2.11 and the change in vivo at 6 mg/kg turned out to be 6.6%. Further, the inhibition in vivo at 10 mg/kg in data set [2] came to 22%. For the same compound, the LD50 at 168 h in data set [3] (ip) was more than 300 mg/kg.

Turning to `CN1CCN(CCCNS(=O)(=O)c2cn(C)cn2)CC1` [Example 27, N-[3-(4-Methylpiperazino)propyl]-1-methyl-4-imidazolesulfonamide dihydrogenfumarate], in data set [1], the “TI of ischemic treated muscle” value is reported as 2.6 and the change in vivo at 6 mg/kg worked out at 32.6%. In data set [2], the inhibition in vivo at 20 mg/kg is 23%. This compound also gave a median lethal dose (LD50) at 168 h in data set [3] (iv) of more than 100 mg/kg.

With `Cl.Cn1ccnc1S(=O)(=O)NCCCN1CCOCC1` [Example 29, N-(3-Morpholinopropyl)-1-methyl-2-imidazolesulfonamide hydrochloride], in data set [1], the “TI of ischemic treated muscle” value is listed as 2.74 and the change in vivo at 6 mg/kg was found to be 38.4%. Further, the inhibition in vivo at 10 mg/kg in data set [2] is 21%. Also, the LD50 at 168 h in data set [3] (iv) is more than 100 mg/kg.

For `Cl.Cn1ccnc1S(=O)(=O)NCCN1CCOCC1` [Example 30, N-(2-Morpholinoethyl)-1-methyl-2-imidazolesulfonamide hydrochloride], in data set [1], the “TI of ischemic treated muscle” value amounted to 2.82 and the change in vivo at 6 mg/kg is -14.2%. In addition, the inhibition in vivo at 10 mg/kg in data set [2] amounted to 45%. The LD50 at 168 h in data set [3] (iv) is more than 100 mg/kg.

Turning to `Cl.Cn1cnc(S(=O)(=O)NCCCN2CCOCC2)c1Cl` [Example 32, N-(3-Morpholinopropyl)-5-chloro-1-methyl-4-imidazolesulfonamide hydrochloride], in data set [1], the “TI of ischemic treated muscle” value is on record as 2.51 and the change in vivo at 6 mg/kg was determined as 6.4%. Besides, in data set [2], the inhibition in vivo at 10 mg/kg was 21%. The LD50 at 168 h in data set [3] (iv) is more than 200 mg/kg.

With `Cl.Cn1cnc(S(=O)(=O)NCCCCCN2CCOCC2)c1Cl` [Example 34, N-(5-Morpholino-1-pentyl)-5-chloro-1-methyl-4-imidazolesulfonamide hydrochloride], in data set [1], the “TI of ischemic treated muscle” value worked out at 1.98 and the change in vivo at 6 mg/kg was 0%. Also, in data set [2], the inhibition in vivo at 10 mg/kg was determined as 15%. In data set [3] (iv), this compound displayed a median lethal dose (LD50) at 168 h of more than 100 mg/kg.

Take `Cn1cnc(S(=O)(=O)N2CCN(c3ccc(O)cc3)CC2)c1Cl` [Example 40]: in data set [1], the “TI of ischemic treated muscle” value was 3.18 and the change in vivo at 6 mg/kg worked out at 34.7%. Further, the inhibition in vivo at 10 mg/kg in data set [2] was 17%. In addition, in data set [3] (ip), the LD50 at 168 h is more than 1200 mg/kg.

Turning to `Cn1cnc(S(=O)(=O)NCCc2ccc(O)cc2)c1Cl` [Example 46, N-(4-hydroxyphenethyl-)-5-chloro-1-methyl-4-imidazolesulfonamide], in data set [1], the “TI of ischemic treated muscle” value stood at 2.05 and the change in vivo at 6 mg/kg was -6.4%. In data set [2], the inhibition in vivo at 10 mg/kg is 29%. In addition, the inhibition in vivo at 30 mg/kg in data set [2] (30 mg/kg p.o.) is 29%. Also, the LD50 at 168 h in data set [3] (ip) is more than 1200 mg/kg.

`Cl.Cn1cncc1S(=O)(=O)NCCCN1CCOCC1` [Example 53, N-(3-Morpholino-1-propyl)-1-methyl-5-imidazolesulfonamide hydrochloride]: in data set [1], the “TI of ischemic treated muscle” value is on record as 3.18 and the change in vivo at 6 mg/kg was -3.3%. Also, in data set [2], the inhibition in vivo at 10 mg/kg was determined as 18%. The compound further returned an LD50 at 168 h in data set [3] (iv) of more than 100 mg/kg.

With `Cn1cnc(S(=O)(=O)NCCCCCCNS(=O)(=O)c2cn(C)cn2)c1` [Example 54, 1,6-Bis(1-methyl-4-imidazolesulfonamido)hexane], in data set [1], the “TI of ischemic treated muscle” value was 2.55 and the change in vivo at 6 mg/kg amounted to 37.8%. In data set [2], the inhibition in vivo at 10 mg/kg is 17%. This compound also yielded an LD50 at 168 h in data set [3] (ip) of more than 1200 mg/kg.

In the case of `CC(=O)CCCCn1c(=O)c2c(ncn2C)n(C)c1=O` [Pentoxyfylline, 1-(5-oxohexyl)-3,7-dimethylxanthine, reference compound], the “TI of ischemic treated muscle” value in data set [1] is recorded as 3.20. Besides, the change in vivo at 6 mg/kg in data set [1] was 43.5%. The “inhibition of photochemically-induced thrombosis” value in data set [4] (1 mg/kg p.o.) is 29%; in data set [4] (3 mg/kg i.v.) it was 3%; in data set [4] (3 mg/kg p.o.) it was 18%; in data set [4] (10 mg/kg i.v.) it was 38%; in data set [4] (10 mg/kg p.o.) it was 68%. The “maximum percentage increase in the erythrocyte flux” value in data set [5] (0.03 mg/kg/min i.v. infusion) was 24.6%; in data set [5] (0.6 mg/kg/min i.v. infusion), 33.1%. The “activity in acute ischemic muscle contractility test (in words)” value with acutely ischemic muscle is “only showed marginal activity”.
